{"source": "patent US5663186A", "about": "“Treatment of atherosclerosis with angiotensin II receptor blocking imidazoles” (Merck & Co., Inc., priority 1995, dated 1997)", "key": {"[1]": {"system": "conscious dogs", "assay": "Hypotensive effects and inhibition of AII pressor response before and after furosemide in conscious dogs", "assay_type": "in vivo, dog"}, "[2]": {"system": "dogs", "conditions": "cited from earlier work"}, "[3]": {"system": "Renal Hypertensives Rats", "assay": "Antihypertensive effects in renal hypertensive rats (left renal artery ligation)", "assay_type": "in vivo, rat", "description": "This procedure increases blood pressure by increasing renin production with consequent elevation of AII levels. Compounds are administered orally at 100 mg/kg and/or intravenously via a cannula in the jugular vein at 10 mg/kg. Arterial blood pressure is continuously measured directly through a carotid artery cannula and recorded using a pressure transducer and a polygraph. Blood pressure levels after treatment are compared to pretreatment levels to determine the antihypertensive effects of the compounds (See Table 1).\nCompound listed in Table 2 was tested in the same manner as described for Table 1, except that in the test for antihypertensive effects in renal hypertensive rats, the compounds were administered orally at 30 mg/kg and intravenously at 3 mg/kg."}, "[4]": {"system": "AII", "conditions": "cited from earlier work"}}, "note": "Structures can show the parent of a compound that is named as a salt.", "data": [{"smiles": "CCCCc1nc(Cl)c(CO)n1Cc1ccc(-c2ccccc2-c2nnn[nH]2)cc1", "note": "[2-butyl-4-chloro-1-[2'-(1H-tetrazol-5-yl)biphenyl-4-yl)methyl]-5-hydroxymethylimidazole sodium salt]", "values": [{"measurement": "inhibition of pressor response to AII after furosemide", "setting": "[1]; furosemide-treated dogs, cumulative iv", "result": "inhibited the pressor response to AII at the two higher doses"}, {"measurement": "decrease in blood pressure after furosemide", "setting": "[1]; furosemide-treated dogs, cumulative iv 0.3 to 3 mg/kg", "result": "significant decrease in blood pressure in a dose-dependent manner"}, {"measurement": "blood pressure lowering", "setting": "[1]; normotensive conscious dogs (n=4), cumulative iv 0.3 to 3 mg/kg, before furosemide", "result": "did not lower blood pressure"}, {"measurement": "inhibition of pressor response to AII", "setting": "[1]; normotensive conscious dogs, cumulative iv 0.3 to 3 mg/kg, AII 0.1 μg/kg iv, 10 min post dose, before furosemide", "result": "effective in inhibiting the pressor response to AII"}]}, {"smiles": "C[C@H](CS)C(=O)N1CCC[C@H]1C(=O)O", "note": "[captopril]", "values": [{"measurement": "effect on renal vasoconstrictor effect of indomethacin", "setting": "[2]; dogs with non-hypotensive hemorrhage", "result": "reverse the renal vasoconstrictor effect of indomethacin"}]}, {"smiles": "CCCCc1nc(Cl)c(C(=O)O)n1Cc1ccc(-c2ccccc2-c2nnn[nH]2)cc1", "note": "[Compound 2, 2-n-butyl-4-chloro-1-[(2'-(tetrazol-5-yl)-1,1'-biphenyl-4-yl)-methyl]-1H-imidazole-5-carboxylic acid]", "values": [{"measurement": "Antihypertensive Effects in Renal Hypertensives Rats, Intravenous Activity", "setting": "[3]; intravenous, 3.0 mg/kg or less", "result": "+ (Significant decrease in blood pressure at 3.0 mg/kg or less)"}, {"measurement": "Antihypertensive Effects in Renal Hypertensives Rats, Oral Activity", "setting": "[3]; oral, 30 mg/kg or less", "result": "+ (Significant decrease in blood pressure at 30 mg/kg or less)"}]}, {"smiles": "NS(=O)(=O)c1cc(C(=O)O)c(NCc2ccco2)cc1Cl", "note": "[furosemide, reference compound]", "values": [{"measurement": "Plasma renin activity (PRA)", "setting": "[1]; dogs (three), furosemide 10 mg/kg im at 18 and 2 hours before, PRA four days earlier 1.5±0.5", "result": "19.9±7.2", "unit": "ng AI/ml/hr"}]}, {"smiles": "CNCC(=O)N[C@@H](CCCN=C(N)N)C(=O)N[C@H](C(=O)N[C@@H](Cc1ccc(O)cc1)C(=O)N[C@H](C(=O)N[C@@H](Cc1cnc[nH]1)C(=O)N1CCC[C@H]1C(=O)N[C@@H](C)C(=O)O)C(C)C)C(C)C", "note": "[Saralasin, [Sar^1, Ala^8] AII]", "values": [{"measurement": "lowering of arterial pressure", "setting": "[4]; mammals and man, when the (elevated) pressure is dependent on circulating AII", "result": "lower arterial pressure in mammals and man"}, {"measurement": "oral effectiveness", "setting": "[4]; oral doses", "result": "oral doses being ineffective"}, {"measurement": "duration of pharmacological effects", "setting": "[4]; parenteral administration", "result": "relatively short-lasting"}, {"measurement": "antagonism of the actions of AII", "setting": "[4]; pithed rats", "result": "one of the most potent competitive antagonists of the actions of AII"}, {"measurement": "agonistic (pressor) effects", "setting": "[4]; when the pressure is not sustained by AII", "result": "generally elicits pressor effects when the pressure is not sustained by AII"}, {"measurement": "effect on renal vasoconstrictor effect of indomethacin and meclofenamate", "setting": "[2]; dogs", "result": "inhibit the renal vasoconstrictor effect of indomethacin and meclofenamate"}]}]}
